The values that follow come from patent US20240409556A1, “BENZOPIPERAZINE AND RELATED ANALOGS FOR INHIBITING YAP/TAZ-TEAD” (Springworks Therapeutics, Inc., priority 2023, published 2024).

What is called IC50 is the point on the concentration scale where inhibition reaches its midpoint.

This test has as its system YAP/TAZ-TEAD transcription. The experiment in a line: Reporter gene assay for measuring the inhibition of YAP/TAZ-TEAD transcription (TEAD-responsive element luciferase reporter in Hek293T cells). Format: cell-based. Particulars: 24 hours incubation. How it is done: Example 56: Activity of Compounds of the Disclosure in a Reporter Gene Assay for Measuring the Inhibition of YAP/TAZ-TEAD Transcription
Hek293T cells were cultured in DMEM supplemented with 10% fetal bovine serum, Sodium pyruvate, Sodium bicarbonate, L-glutamine. The cells were harvested and transiently transfected with TEAD-responsive element luciferase reporter. Transfected cells were plated in 384-well plate containing pre-diluted compounds. After 24 hours incubation at 37° C./5% CO2, assay plates were cooled to room temperature and levelled to an equal volume per well, prior to the addition of 25 uL luciferase substrate SteadyLite (Perkin Elmer)/well. The plate was shaken for 10 min at 600 rpm, centrifuged for 1 min at 500 rpm and measured with an Envision reader (PerkinElmer). The amount of relative light units produced by the TEAD reporter was used to calculate the percentage of inhibition.
The percent of reporter inhibition was calculated in the presence of a positive control inhibitor (100% inhibition) versus a condition with the presence of the vehicle basal activity of the reporter (0% inhibition). The ability of a test compound to inhibit this activity was determined as: Percentage inhibition=[[…]((RLU determined in the presence of vehicle−RLU determined for sample with test compound present) divided by (RLU determined in the presence of vehicle−RLU determined for sample with positive control inhibitor))]*100.
The activities of example compounds tested are depicted in Table 3. The activity ranges A, B and C refer to IC50 values in the reporter gene assay as follows: “A”: IC50<1 μM; “B”: 1 μM≤IC50≤10 μM and “C”: IC50>10 μM; NT=not tested.

`CC(=O)N1CCN2c3ccccc3N(c3ccc(C(F)(F)F)cc3)CC2C1` (single isomer, unassigned) [15-En1, (R)- or (S)-1-(6-(4-(trifluoromethyl)phenyl)-1,2,4,4a,5,6-hexahydro-3H-pyrazino[1,2-a]quinoxalin-3-yl)ethan-1-one]: the 50% inhibitory concentration (IC50) lay in the range of 1000 to 10000 nM. Same read-out and setting: the same measure for `CC(=O)N1CCN2c3ncccc3N(c3ccc(C(F)(F)F)cc3)CC2C1` (single isomer, unassigned) [29-En2, (R)- or (S)-1-(5-(4-(trifluoromethyl)phenyl)-5,6,6a,7,9,10-hexahydro-8H-pyrazino[1,2-a]pyrido[3,2-e]pyrazin-8-yl)ethan-1-one]: less than 1000 nM. On the same count and under the same terms, the same measure for `CNS(=O)(=O)N1CCN2c3ccccc3N(c3ccc(C(F)(F)F)cc3)CC2C1` (single isomer, unassigned) [32-En1, (R)- or (S)-N-methyl-6-(4-(trifluoromethyl)phenyl)-1,2,4,4a,5,6-hexahydro-3H-pyrazino[1,2-a]quinoxaline-3-sulfonamide]: less than 1000 nM; for `CC(=O)NCC1CN(c2ccc(C(F)(F)F)cc2)c2ccccc2N1` (single isomer, unassigned) [34-En1, (R)- or (S)-N-((4-(4-(trifluoromethyl)phenyl)-1,2,3,4-tetrahydroquinoxalin-2-yl)methyl)acetamide]: less than 1000 nM; for `CC(=O)NCC1CN(c2ccc(C(F)(F)F)cc2)c2ccccc2O1` (single isomer, unassigned) [36-En2, (R)- or (S)-N-((4-(4-(trifluoromethyl)phenyl)-3,4-dihydro-2H-benzo[b][1,4]oxazin-2-yl)methyl)acetamide]: less than 1000 nM. On to `CC(=O)N1CCN2c3nccnc3N(c3ccc(C(F)(F)F)cc3)CC2C1` (single isomer, unassigned) [40-En2, (R)- or (S)-1-(5-(4-(trifluoromethyl)phenyl)-5,6,6a,7,9,10-hexahydro-8H-dipyrazino[1,2-a:2′,3′-e]pyrazin-8-yl)ethan-1-one], for which the IC50 lay in the range of 1000 to 10000 nM. For the molecule `C=CC(=O)N1CCN2C(C1)CN(c1ccc(C(F)(F)F)cc1)C1CCC12` (single isomer, unassigned) [42(Dia1), 1-(3-(4-(trifluoromethyl)phenyl)decahydro-6H-cyclobuta[e]pyrazino[1,2-a]pyrazin-6-yl)prop-2-en-1-one], under “Homo sapiens, HEK-293T, 24 h”, the 50% inhibitory concentration (IC50) is less than 1000 nM. Turning to `C=CC(=O)N1CCN2C(C1)CN(c1ccc(C(F)(F)F)cc1)C1CCC12` (single isomer, unassigned) [42(Dia2), 1-(3-(4-(trifluoromethyl)phenyl)decahydro-6H-cyclobuta[e]pyrazino[1,2-a]pyrazin-6-yl)prop-2-en-1-one], the 50% inhibitory concentration (IC50) was less than 1000 nM. The same measure, in the same setting: the same measure for `CNS(=O)(=O)N1CCN2c3ncccc3N(c3ccc(C(F)(F)F)cc3)CC2C1` (single isomer, unassigned) [45-En1, (R)- or (S)-N-methyl-5-(4-(trifluoromethyl)phenyl)-5,6,6a,7,9,10-hexahydro-8H-pyrazino[1,2-a]pyrido[3,2-e]pyrazine-8-sulfonamide]: less than 1000 nM. Take `CC(C)C(=O)N1CCN2c3ncccc3N(c3ccc(C(F)(F)F)cc3)CC2C1` (single isomer, unassigned) [47-En2, (R)- or (S)-2-methyl-1-(5-(4-(trifluoromethyl)phenyl)-5,6,6a,7,9,10-hexahydro-8H-pyrazino[1,2-a]pyrido[3,2-e]pyrazin-8-yl)propan-1-one]: the IC50 was less than 1000 nM. On the same count and under the same terms, the same measure for `CC(=O)NCC1CN(c2ccc(C(F)(F)F)cc2)c2cccnc2O1` (single isomer, unassigned) [49-En2, (R)- or (S)-N-((1-(4-(trifluoromethyl)phenyl)-2,3-dihydro-1H-pyrido[2,3-b][1,4]oxazin-3-yl)methyl)acetamide]: 1000 to 10000 nM; for `CNC(=O)N1CCN2c3ncccc3N(c3ccc(C(F)(F)F)cc3)CC2C1` (single isomer, unassigned) [52-En1, (R)- or (S)-N-methyl-5-(4-(trifluoromethyl)phenyl)-5,6,6a,7,9,10-hexahydro-8H-pyrazino[1,2-a]pyrido[3,2-e]pyrazine-8-carboxamide]: less than 1000 nM. `COc1ccc2c(n1)OC(CNC(C)=O)CN2c1ccc(C(F)(F)F)cc1` (single isomer, unassigned) [73-En1, (R)- or (S)-N-((6-methoxy-1-(4-(trifluoromethyl)phenyl)-2,3-dihydro-1H-pyrido[2,3-b][1,4]oxazin-3-yl)methyl)acetamide] showed a half-maximal inhibitory concentration (IC50) of more than 10000 nM. On the same count and under the same terms, the same measure for `COc1ccc2c(n1)OC(CNC(C)=O)CN2c1ccc(C(F)(F)F)cc1` (single isomer, unassigned) [73-En2, (R)- or (S)-N-((6-methoxy-1-(4-(trifluoromethyl)phenyl)-2,3-dihydro-1H-pyrido[2,3-b][1,4]oxazin-3-yl)methyl)acetamide]: less than 1000 nM; for `CC(=O)NCC1CN(c2ccc(C(F)(F)F)cc2)c2cc(Cl)cnc2O1` (single isomer, unassigned) [75-En1, (R)- or (S)-N-((7-chloro-1-(4-(trifluoromethyl)phenyl)-2,3-dihydro-1H-pyrido[2,3-b][1,4]oxazin-3-yl)methyl)acetamide]: more than 10000 nM; for `CC(=O)NCC1CN(c2ccc(C(F)(F)F)cc2)c2ccc(C)nc2O1` (single isomer, unassigned) [77-En2, (R)- or (S)-N-((6-methyl-1-(4-(trifluoromethyl)phenyl)-2,3-dihydro-1H-pyrido[2,3-b][1,4]oxazin-3-yl)methyl)acetamide]: less than 1000 nM.

In turn, `CC(=O)N1CC(=O)N2c3ccccc3N(c3ccc(C(F)(F)F)cc3)CC2C1` (single isomer, unassigned) [79-En1, (R)- or (S)-3-acetyl-6-(4-(trifluoromethyl)phenyl)-2,3,4,4a,5,6-hexahydro-1H-pyrazino[1,2-a]quinoxalin-1-one] showed a concentration for half-maximal inhibition (IC50) of more than 10000 nM.

In the case of `CC(=O)N1CC(=O)N2c3ccccc3N(c3ccc(C(F)(F)F)cc3)CC2C1` (single isomer, unassigned) [79-En2, (R)- or (S)-3-acetyl-6-(4-(trifluoromethyl)phenyl)-2,3,4,4a,5,6-hexahydro-1H-pyrazino[1,2-a]quinoxalin-1-one], the IC50 was less than 1000 nM. The same measure, in the same setting: the figure for `CC(=O)NCC1CN(c2ccc(C(F)(F)F)cc2)c2ccc(C3CC3)nc2O1` (single isomer, unassigned) [81-En2, (R)- or (S)-N-((6-cyclopropyl-1-(4-(trifluoromethyl)phenyl)-2,3-dihydro-1H-pyrido[2,3-b][1,4]oxazin-3-yl)methyl)acetamide] is less than 1000 nM. The same measure, in the same setting: the figure for `CC(=O)NCC1CN(c2ccc(C(F)(F)F)cc2)c2ccc(N(C)C)nc2O1` (single isomer, unassigned) [87-En2, (R)- or (S)-N-((6-(dimethylamino)-1-(4-(trifluoromethyl)phenyl)-2,3-dihydro-1H-pyrido[2,3-b][1,4]oxazin-3-yl)methyl)acetamide] is less than 1000 nM.

The molecule `O=C(O)C1CCN2c3ncccc3N(c3ccc(C(F)(F)F)cc3)CC2C1` (single isomer, unassigned) [96A, (cis)- or (trans)-5-(4-(trifluoromethyl)phenyl)-6,6a,7,8,9,10-hexahydro-5H-dipyrido[1,2-a:3′,2′-e]pyrazine-8-carboxylic acid] yielded a 50% inhibitory concentration (IC50) (Homo sapiens, HEK-293T, 24 h) of less than 1000 nM.
